# Patent US11998554B2, “Composition comprising lipoic acid and vitamin D for the prevention and the treatment of neurodegenerative diseases and peripheral neuropathies” (URIACH ITALY S.R.L., priority 2018, dated 2024)
# How the values were obtained:
# astrocytes [1] = experiment: Production of ROS in astrocytes pre-treated with Fe^3+; format: cell-based, mouse; conditions: for reduction of production of ROS with respect to Fe^3+ alone: 300 μM Fe^3+ 6 days, then 50 μM LA, 100 nM vitD another 6 days
# [2] = test system: amyloid precursor protein (APP); experiment: Quantification of APP (ELISA) in astrocytes pre-treated with Fe^3+; format: cell-based, mouse; conditions: for reduction of level of APP against 300 μM Fe^3+: 300 μM Fe^3+ 6 days, then 50 μM LA, 100 nM vitD another 6 days
# astrocytes [3] = experiment: Iron quantification assay in astrocytes pre-treated with Fe^3+; format: cell-based, mouse; conditions: for reduction of accumulation of iron against Fe^3+ alone: 300 μM Fe^3+ 6 days, then 50 μM LA, 100 nM vitD another 6 days
# astrocytes [4] = experiment: MTT cell viability in astrocytes pre-treated with Fe^3+; format: cell-based, mouse; conditions: for cell viability after post-treatment following Fe^3+ (in words): 300 μM Fe^3+ 6 days, then treatment another 6 days
# ERK/MAPK [5] = experiment: ERK/MAPK activity (ELISA InstantOne) under oxidative conditions; format: cell-based, mouse; conditions: for ERK/MAPK activity without H2O2 (in words): 24 hours, 50 μM LA, 100 nM vitD; for ERK activity after post-treatment following H2O2 (in words): after 200 μM H2O2
# astrocytes [6] = experiment: Production of ROS (superoxide anion release) under oxidative conditions; format: cell-based, mouse; conditions: for reduction of production of ROS with respect to H2O2 alone: post-treatment after 200 μM H2O2
# astrocytes [7] = experiment: MTT cell viability under oxidative conditions (H2O2 pre-treatment); format: cell-based, mouse; conditions: for cell viability after post-treatment (in words): 200 μM H2O2 pre-treatment, then 50 μM LA, 100 nM vitD, 24 hours
# PI3K-Akt = PI3K-Akt activity (ELISA InstantOne) under oxidative conditions; format: cell-based, mouse; conditions: for PI3K-Akt activity without H2O2 (in words): 24 hours, 50 μM LA, 100 nM vitD; for Akt activity after post-treatment following H2O2 (in words): after 200 μM H2O2
# p53 [8] = experiment: Activity of p53 (ELISA on nuclear extracts) under oxidative conditions; format: cell-based, mouse; conditions: for activity of p53 without H2O2 vs control (in words): 50 μM LA, 100 nM vitD, p<0.05; for activity of p53 after H2O2 (in words): stimulation after 200 μM H2O2
# astrocytes [9] = experiment: MTT cell viability, dose- and time-dependent, physiological conditions; format: cell-based, mouse; conditions: 1440 min, 50 μM LA, 100 nM vitD
# Description: The cultures of mouse astrocytes were prepared from male and female C57BL/6 baby mice, following a known conventional technique according to the national guidelines for the use and care of laboratory animals. Basically, within 24 hours from birth, the baby mice were euthanized and the corticals were cut, […] minced, mechanically digested and left to rest for 30 minutes at ambient temperature. The cell suspension was then centrifuged at 800 rpm (revolutions per minute) for 5 minutes. The pelleted cells were resuspended in neuronal basal medium (Sigma-Aldrich), supplemented with fetal bovine serum at 5% (FBS, Gibco), penicillin/streptomycin 1% (Sigma-Aldrich) and L-glutamine 2 mM (Sigma-Aldrich), placed in multiple wells and kept in culture for 6 days prior to the treatment. […] Cell viability was determined by measuring absorbance at 570 nm with correction at 690 nm, using a spectrometer (VICTOR X4, multi-label plate reader) and calculated by comparing the results with the control. […] Firstly, the effect depending on the concentration of LA alone (comprised between 10 μM and 100 μM) on the cell viability over 24 hours (starting from 15 minutes to 1440 minutes) was analysed, with the aim of identifying the best concentration to be used. FIG. 1(a) illustrates the time-dependent and dose-response studies (ranging from 10 μM to 100 μM) of LA measured in astrocytes.
# iNOS = experiment: Western blot expression of iNOS under oxidative conditions; format: cell-based, mouse; conditions: post-stimulation after 200 μM H2O2
# p53 [10] = experiment: Activity of p53 (ELISA) in astrocytes pre-treated with Fe^3+; format: cell-based, mouse; conditions: 300 μM Fe^3+ 6 days, then 50 μM LA, 100 nM vitD another 6 days
# astrocytes [11] = experiment: Mitochondrial membrane potential (JC-1) under oxidative conditions; format: cell-based, mouse; conditions: 50 μM LA, 100 nM vitD; for mitochondrial potential without H2O2 (in words): p<0.05; for dissipation of the mitochondrial potential after post-treatment, with respect to H2O2 alone (in words): after 200 μM H2O2
# [12] = test system: blood-brain barrier (BBB) experimental model; experiment: Blood-brain barrier (BBB) experimental model permeability (astrocytes/HUVEC Transwell co-culture); conditions: 1440 min; 100 nM vitD, 50 μM LA alone
# SOD3 [13] = experiment: Western blot expression of SOD3 in astrocytes pre-treated with Fe^3+; format: cell-based, mouse; conditions: 300 μM Fe^3+ 6 days, then 50 μM LA or 100 nM vitD 6 more days, p<0.05
# PKA = experiment: Western blot expression of p-PKA under oxidative conditions; format: cell-based, mouse; conditions: for expression of PKA without H2O2 (in words): 50 μM LA, 100 nM vitD; for expression of PKA after H2O2 (in words): post-stimulation after 200 μM H2O2
# SOD3 [14] = experiment: Western blot expression of SOD3 under oxidative conditions; format: cell-based, mouse; conditions: post-stimulation after 200 μM H2O2
# ERK/MAPK [15] = experiment: ERK/MAPK activity (ELISA) in astrocytes pre-treated with Fe^3+; format: cell-based, mouse; conditions: 300 μM Fe^3+ 6 days, then treatment another 6 days, p<0.05
# cytochrome C = experiment: Western blot expression of cytochrome C under oxidative conditions; format: cell-based, mouse; conditions: for expression of cytochrome C without H2O2 (in words): 50 μM LA, 100 nM vitD; for expression of cytochrome C after H2O2 (in words): stimulation after H2O2, p<0.05
Structure (SMILES),activity of p53 without H2O2 vs control (in words) (p53 [8]),activity of p53 after H2O2 (in words) (p53 [8]),ERK/MAPK activity without H2O2 (in words) (ERK/MAPK [5]),ERK activity after post-treatment following H2O2 (in words) (ERK/MAPK [5]),"cell viability, maximum effect with respect to the control (astrocytes [9])",reduction of production of ROS with respect to Fe^3+ alone (astrocytes [1]),expression of iNOS with respect to 200 μM of H2O2 (in words) (iNOS),reduction of level of APP against 300 μM Fe^3+ [2],reduction of activation of p53 with respect to 300 μM Fe^3+ (p53 [10]),mitochondrial potential without H2O2 (in words) (astrocytes [11]),"dissipation of the mitochondrial potential after post-treatment, with respect to H2O2 alone (in words) (astrocytes [11])",absorption capacity through the blood-brain barrier (basolateral volume analysis) with respect to the control [12],reduction of accumulation of iron against Fe^3+ alone (astrocytes [3]),expression of SOD3 after Fe^3+ (in words) (SOD3 [13]),expression of PKA without H2O2 (in words) (PKA),expression of PKA after H2O2 (in words) (PKA),expression of SOD3 with respect to 200 μM of H2O2 (in words) (SOD3 [14]),"reduction of production of ROS with respect to H2O2 alone (astrocytes [6]; 50 μM LA, 100 nM vitD)",cell viability after post-treatment following Fe^3+ (in words) (astrocytes [4]),cell viability after post-treatment (in words) (astrocytes [7]),also measured
[Fe+3] [Fe^3+],–,–,–,–,–,–,–,–,–,–,–,–,–,–,–,–,–,–,–,–,"increase of production of intracellular ROS with respect to the control (astrocytes [1]; 300 μM Fe^3+, 6 days): about 60%; increase of level of APP with respect to the control ([2]; 300 μM Fe^3+, 6 days): about 43%; increase of intracellular iron accumulation with respect to the control (astrocytes [3]; 300 μM Fe^3+, 6 days): about 69%; reduction of cell viability with respect to the control (astrocytes [4]; 300 μM Fe^3+, 6 days): about 23%"
OO [H2O2],–,–,–,–,–,–,–,–,–,–,–,–,–,–,–,–,–,–,–,–,reduction of activity of ERK with respect to the control (ERK/MAPK [5]; 200 μM H2O2): about 6%; increase of production of intracellular ROS with respect to the control (astrocytes [6]; 200 μM stressor alone): about 30%; reduction of cell viability with respect to the control (astrocytes [7]; 200 μM H2O2): 46%; reduction of activity of Akt with respect to the control (PI3K-Akt; 200 μM H2O2): ~7%
"C=C1CC[C@H](O)C/C1=C/C=C1\CCC[C@]2(C)[C@@H]([C@H](C)CCCC(C)C)CC[C@@H]12 [vitD, cholecalciferol]",reduction of the activity of p53,reduced it significantly,activating ERK and Akt mediators,nullified the effects observed previously,about 22%,~83%,significantly reduced,~55%,~88%,significant increase of the red fluorescence,significantly inverted,about 49.5%,~88%,reduced,significant increase,restored the mechanism,significantly reduced,~57%,cell viability leads to control values,cell viability increased significantly,activation of ERK/MAPK with respect to 300 μM Fe^3+ (in words) (ERK/MAPK [15]): significant reduction; PI3K-Akt activity without H2O2 (in words) (PI3K-Akt): activating ERK and Akt mediators; Akt activity after post-treatment following H2O2 (in words) (PI3K-Akt): nullified the effects observed previously; expression of cytochrome C without H2O2 (in words) (cytochrome C): results similar to those obtained for p53; expression of cytochrome C after H2O2 (in words) (cytochrome C): reduced
"O=C(O)CCCCC1CCSS1 (racemic) [LA, alpha-lipoic acid]",reduction of the activity of p53,reduced it significantly,activating ERK and Akt mediators,nullified the effects observed previously,about 66%,about 68%,significantly reduced,about 63%,about 84%,significant increase of the red fluorescence,significantly inverted,~40.5%,about 81%,reduced,significant increase,restored the mechanism,significantly reduced,about 43%,cell viability leads to control values,cell viability increased significantly,"production of ROS without H2O2 (in words) (astrocytes [6]; 50 μM LA, 100 nM vitD, no H2O2, p>0.05 vs control): maintaining the production of ROS below the physiological level; activation of ERK/MAPK with respect to 300 μM Fe^3+ (in words) (ERK/MAPK [15]): significant reduction; PI3K-Akt activity without H2O2 (in words) (PI3K-Akt): activating ERK and Akt mediators; Akt activity after post-treatment following H2O2 (in words) (PI3K-Akt): nullified the effects observed previously; expression of cytochrome C without H2O2 (in words) (cytochrome C): results similar to those obtained for p53; expression of cytochrome C after H2O2 (in words) (cytochrome C): reduced"
